Experimental data published in ChEMBL document CHEMBL1201862, “PubChem BioAssay data set” (2004).
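All cell lines were grown in 96-well plates and treated with compound for 48 hours. GI50: concentration for 50% inhibition of growth.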 The source made the active and inactive calls. Rule as the data show it: active = GI50 up to about 1.1 µM and inactive = higher.

Columns and labels:
Test in all cases: NCI anticancer screen, dose series, 48 h
[1] = tested on: 786-0
[2] = tested on: ACHN
[3] = tested on: UACC-62
[4] = tested on: SK-MEL-2
[5] = tested on: OVCAR-5
[6] = tested on: HCT-116
[7] = tested on: IGROV-1
[8] = tested on: COLO 205
[9] = tested on: NCI/ADR-RES
[10] = tested on: SN12C
[11] = tested on: LOX IMVI
[12] = tested on: SK-MEL-28
[13] = tested on: SK-OV-3
[14] = tested on: NCI-H226
[15] = tested on: SNB-19
[16] = tested on: SF-295
[17] = tested on: OVCAR-3
[18] = tested on: CCRF-CEM
[19] = tested on: HOP-92
[20] = tested on: UO-31
[21] = tested on: SR
[22] = tested on: Malme-3M
[23] = tested on: SF-539
[24] = tested on: EKVX
[25] = tested on: MDA-N
[26] = tested on: CAKI-1
[27] = tested on: MOLT-4
[28] = tested on: K562
[29] = tested on: U-251
[30] = tested on: A549
[31] = tested on: UACC-257
[32] = tested on: MCF7
[33] = tested on: HL-60
[34] = tested on: HOP-62
[35] = tested on: RPMI-8226
[36] = tested on: TK-10
[37] = tested on: HT-29
[38] = tested on: NCI-H23
[39] = tested on: OVCAR-4
[40] = tested on: SW-620
[41] = tested on: PC-3
[42] = tested on: HCC 2998
[43] = tested on: SNB-75
[44] = tested on: M14
[45] = tested on: KM12
[46] = tested on: T47D
[47] = tested on: A498
[48] = tested on: MDA-MB-231
[49] = tested on: BT-549
[50] = tested on: OVCAR-8
[51] = tested on: MDA-MB-435
[52] = tested on: HCT-15
[53] = tested on: SK-MEL-5
[54] = tested on: NCI-H522
[55] = tested on: DU-145
[56] = tested on: NCI-H460
[57] = tested on: RXF 393
[58] = tested on: SF-268

For `CC1NC(/C(=C/c2ccccc2O)NC(=O)c2ccccc2)OC1=O` (configuration not stated), the GI50 [1] was 16.3 µM (inactive), the GI50 [2] was 22.4 µM (inactive) and the GI50 [3] was > 50 µM (inactive). The GI50 [4] was > 50 µM (inactive), the GI50 [5] was > 50 µM (inactive) and the GI50 [6] was > 50 µM (inactive). For the same molecule, the GI50 [7] was 14 µM (inactive), the GI50 [8] was > 50 µM (inactive) and the GI50 [9] was > 50 µM (inactive). The GI50 [10] was > 50 µM (inactive), the GI50 [11] was > 50 µM (inactive) and the GI50 [12] was > 50 µM (inactive). The GI50 [13] was 48.2 µM (inactive), the GI50 [14] was > 50 µM (inactive) and the GI50 [15] was > 50 µM (inactive). For the same molecule, the GI50 [16] was > 50 µM (inactive), the GI50 [17] was > 50 µM (inactive) and the GI50 [18] was > 50 µM (inactive). The GI50 [19] was 11 µM (inactive), the GI50 [20] was > 50 µM (inactive) and the GI50 [21] was 2.52 µM (inactive). For the same molecule, the GI50 [22] was 9.31 µM (inactive), the GI50 [23] was 11.5 µM (inactive) and the GI50 [24] was 30.4 µM (inactive). The GI50 [25] was 4.05 µM (inactive), the GI50 [26] was > 50 µM (inactive) and the GI50 [27] was > 50 µM (inactive). For the same molecule, the GI50 [28] was > 50 µM (inactive), the GI50 [29] was > 50 µM (inactive) and the GI50 [30] was > 50 µM (inactive). For the same molecule, the GI50 [31] was > 50 µM (inactive), the GI50 [32] was 1.47 µM (inactive) and the GI50 [33] was 23.3 µM (inactive). The GI50 [34] was 16.1 µM (inactive), the GI50 [35] was > 50 µM (inactive) and the GI50 [36] was > 50 µM (inactive). For the same molecule, the GI50 [37] was > 50 µM (inactive), the GI50 [38] was > 50 µM (inactive) and the GI50 [39] was > 50 µM (inactive). For the same molecule, the GI50 [40] was > 50 µM (inactive), the GI50 [41] was 30.7 µM (inactive) and the GI50 [42] was > 50 µM (inactive). The GI50 [43] was 13.9 µM (inactive), the GI50 [44] was > 50 µM (inactive) and the GI50 [45] was 4.74 µM (inactive). For the same molecule, the GI50 [46] was 27.7 µM (inactive), the GI50 [47] was > 50 µM (inactive) and the GI50 [48] was > 50 µM (inactive). The GI50 [49] was > 50 µM (inactive), the GI50 [50] was > 50 µM (inactive) and the GI50 [51] was 28.8 µM (inactive). For the same molecule, the GI50 [52] was 34.1 µM, the GI50 [53] was 39.7 µM (inactive) and the GI50 [54] was 24.2 µM (inactive).

`O=C(c1ccc2ccccc2c1)C1(I)S(=O)(=O)OCCOS1(=O)=O` was tested, and the GI50 [1] was > 100 µM (inactive), the GI50 [2] was > 100 µM (inactive) and the GI50 [4] was > 100 µM (inactive). The GI50 [5] was > 100 µM (inactive), the GI50 [6] was > 100 µM (inactive) and the GI50 [8] was > 100 µM (inactive). The GI50 [9] was > 100 µM (inactive), the GI50 [10] was > 100 µM (inactive) and the GI50 [12] was > 100 µM (inactive). For the same molecule, the GI50 [15] was > 100 µM (inactive), the GI50 [16] was 0.0102 µM (active) and the GI50 [17] was > 100 µM (inactive). The GI50 [18] was > 100 µM (inactive), the GI50 [20] was > 100 µM (inactive) and the GI50 [21] was > 100 µM (inactive). The GI50 [22] was > 100 µM (inactive), the GI50 [55] was > 100 µM (inactive) and the GI50 [24] was > 100 µM (inactive). The GI50 [25] was > 100 µM (inactive), the GI50 [26] was > 100 µM (inactive) and the GI50 [27] was > 100 µM (inactive). For the same molecule, the GI50 [28] was > 100 µM (inactive), the GI50 [29] was > 100 µM (inactive) and the GI50 [30] was > 100 µM (inactive). The GI50 [56] was > 100 µM (inactive), the GI50 [32] was > 100 µM (inactive) and the GI50 [33] was > 100 µM (inactive). The GI50 [34] was > 100 µM (inactive), the GI50 [35] was > 100 µM (inactive) and the GI50 [36] was > 100 µM (inactive). For the same molecule, the GI50 [37] was > 100 µM (inactive), the GI50 [38] was > 100 µM (inactive) and the GI50 [39] was > 100 µM (inactive). For the same molecule, the GI50 [41] was > 100 µM (inactive), the GI50 [42] was > 100 µM (inactive) and the GI50 [44] was > 100 µM (inactive). For the same molecule, the GI50 [45] was > 100 µM (inactive), the GI50 [48] was > 100 µM (inactive) and the GI50 [49] was > 100 µM (inactive). For the same molecule, the GI50 [50] was > 100 µM (inactive), the GI50 [51] was > 100 µM (inactive) and the GI50 [52] was greater than 100 µM. The GI50 [53] was > 100 µM (inactive).

With `CC(=O)/C(=C/NC(=S)c1ccncc1)C(=O)Nc1ccccc1C` the GI50 [1] was > 100 µM (inactive), the GI50 [2] was > 100 µM (inactive) and the GI50 [3] was > 100 µM (inactive). The GI50 [4] was > 100 µM (inactive), the GI50 [5] was > 100 µM (inactive) and the GI50 [6] was > 100 µM (inactive). For the same molecule, the GI50 [7] was > 100 µM (inactive), the GI50 [8] was > 100 µM (inactive) and the GI50 [9] was > 100 µM (inactive). For the same molecule, the GI50 [10] was > 100 µM (inactive), the GI50 [11] was > 100 µM (inactive) and the GI50 [12] was > 100 µM (inactive). The GI50 [13] was > 100 µM (inactive), the GI50 [14] was > 100 µM (inactive) and the GI50 [15] was > 100 µM (inactive). The GI50 [16] was > 100 µM (inactive), the GI50 [17] was > 100 µM (inactive) and the GI50 [19] was > 100 µM (inactive). The GI50 [20] was > 100 µM (inactive), the GI50 [55] was > 100 µM (inactive) and the GI50 [23] was > 100 µM (inactive). The GI50 [24] was > 100 µM (inactive), the GI50 [25] was > 100 µM (inactive) and the GI50 [26] was > 100 µM (inactive). The GI50 [29] was > 100 µM (inactive), the GI50 [30] was > 100 µM (inactive) and the GI50 [31] was > 100 µM (inactive). The GI50 [56] was > 100 µM (inactive), the GI50 [32] was > 100 µM (inactive) and the GI50 [33] was > 100 µM (inactive). For the same molecule, the GI50 [34] was > 100 µM (inactive), the GI50 [57] was > 100 µM (inactive) and the GI50 [36] was > 100 µM (inactive). The GI50 [37] was > 100 µM (inactive), the GI50 [38] was > 100 µM (inactive) and the GI50 [39] was > 100 µM (inactive). For the same molecule, the GI50 [40] was > 100 µM (inactive), the GI50 [42] was > 100 µM (inactive) and the GI50 [43] was > 100 µM (inactive). For the same molecule, the GI50 [58] was > 100 µM (inactive), the GI50 [44] was > 100 µM (inactive) and the GI50 [45] was > 100 µM (inactive). For the same molecule, the GI50 [46] was > 100 µM (inactive), the GI50 [47] was > 100 µM (inactive) and the GI50 [48] was > 100 µM (inactive). For the same molecule, the GI50 [49] was > 100 µM (inactive), the GI50 [50] was > 100 µM (inactive) and the GI50 [51] was > 100 µM (inactive). For the same molecule, the GI50 [52] was greater than 100 µM and the GI50 [53] was > 100 µM (inactive).
